Tests used:
Type in all cases: cell-based
[1] = biological target: wild-type human cardiac sodium channel, hNav1.5 (Homo sapiens, UniProt Q14524); test: Late INa screening assay (QPatch whole cell patch clamp, tefluthrin-enhanced late sodium current); details: HEK293 hNav1.5, late INa activated with 10 μM Tefluthrin
Summary of the method: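 Automated whole-cell patch clamp of HEK293 cells stably expressing hNav1.5 (no β subunits), 23-25 °C. Late current enhanced by 10 μM tefluthrin, 250 ms steps to −20 mV from −120 mV at 0.1 Hz, measured 225-250 ms. Compounds typically 1 μM, three additions over 7-8 min; % block normalised to 0 Na baseline.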

human Nav1.1 = biological target: T1, human Nav1.1 (Homo sapiens, UniProt P35498); test: Nav1.1 use-dependent block, whole-cell voltage clamp, 10 Hz pulse train; details: Chantest conditions, read-out: NAV1.1 UDB-10 HZ % Inhibition
T1 construct: expressed in transfected cells; host or cells: HEK293, transient transfection (Qiagen Superfect), α1:β1:β2 at 10:1:1

hNav1.2 sodium channel = biological target: T2, hNav1.2 sodium channel (Homo sapiens, UniProt Q99250); test: Nav1.2 use-dependent block, whole-cell voltage clamp, 10 Hz pulse train; details: Chantest conditions, read-out: NAV1.2 UDB-10 HZ % Inhibition
T2 construct: expressed in transfected cells
Description: Wild-type (WT) cDNA stably transfected in Chinese hamster ovary (CHO) cells is used to record INa. Unless otherwise noted, all reagents are purchased from Sigma-Aldrich (St Louis, Mo., U.S.A.).
Whole-cell voltage-clamp recordings are used to measure the biophysical properties of WT. Briefly, the pipette solution consists of (in mM) 110 CsF, 10 NaF, 20 CsCl, 2 EGTA, 10 HEPES, with a pH of 7.35 and osmolarity of 300 mOsmol/kg. The bath (control) solution contains in (mM): 145 NaCl, 4 KCl, 1.8 CaCl2, 1 MgCl2, 10 dextrose, 10 HEPES, with a pH of 7.35 and osmolarity of 310 mOsmol/kg. Cells are allowed to stabilize for 10 min after establishment of the whole-cell configuration before current is measured. Series resistance is compensated 90% to assure that the command potential is reached within microseconds with a voltage error<2 mV. Leak currents are subtracted by using an online P/4 procedure and all currents are low-pass Bessel filtered at 5 kHz and digitized at 50 kHz.
Tonic block of peak current is measured using a step to −10 mV (20 ms) from a holding potential of −120 mV (0.2 Hz). Use-dependent block of peak current is measured during pulse number 300 of a pulse train (−10 mV, 5 ms, 300 pulses, 10 Hz or 25 Hz) from a holding potential of −120 mV. Currents are then normalized to the peak current recorded in response to the first pulse in each frequency train. For tonic block studies, peak current is evaluated in response to a 20 ms depolarization to −10 mV (0.2 Hz). Two sequential pulse train stimulations are averaged to obtain mean current traces for each recording condition, which are then used for offline subtraction and analysis.
A stock solution of 10 mM compound of Formula I is prepared in 0.1 M HCl or DMSO. A fresh dilution of the compound of Formula I in the bath solution is prepared every experimental day and the pH is readjusted to 7.35 as necessary. The final DMSO concentration was kept at 0.1% in all solutions. Direct application of the perfusion solution to the clamped cell is achieved using the Perfusion Pencil system (Automate, Berkeley, Calif.). Direct cell perfusion is driven by gravity at a flow rate of 350 μL/min using a 250 micron tip. This system sequesters the clamped cell within a perfusion stream and enables complete solution exchange within 1 second. The clamped cell is perfused continuously starting immediately after establishing the whole-cell configuration. Control currents are measured during control solution perfusion.
Solutions are perfused for three minutes prior to current recordings to allow equilibrium (tonic) drug block. Tonic block of peak currents is measured from this steady-state condition. Three sequential current traces are averaged to obtain a mean current for each recording. The mean current traces are utilized for offline analysis.

T2 sequence (Q99250 whole entry): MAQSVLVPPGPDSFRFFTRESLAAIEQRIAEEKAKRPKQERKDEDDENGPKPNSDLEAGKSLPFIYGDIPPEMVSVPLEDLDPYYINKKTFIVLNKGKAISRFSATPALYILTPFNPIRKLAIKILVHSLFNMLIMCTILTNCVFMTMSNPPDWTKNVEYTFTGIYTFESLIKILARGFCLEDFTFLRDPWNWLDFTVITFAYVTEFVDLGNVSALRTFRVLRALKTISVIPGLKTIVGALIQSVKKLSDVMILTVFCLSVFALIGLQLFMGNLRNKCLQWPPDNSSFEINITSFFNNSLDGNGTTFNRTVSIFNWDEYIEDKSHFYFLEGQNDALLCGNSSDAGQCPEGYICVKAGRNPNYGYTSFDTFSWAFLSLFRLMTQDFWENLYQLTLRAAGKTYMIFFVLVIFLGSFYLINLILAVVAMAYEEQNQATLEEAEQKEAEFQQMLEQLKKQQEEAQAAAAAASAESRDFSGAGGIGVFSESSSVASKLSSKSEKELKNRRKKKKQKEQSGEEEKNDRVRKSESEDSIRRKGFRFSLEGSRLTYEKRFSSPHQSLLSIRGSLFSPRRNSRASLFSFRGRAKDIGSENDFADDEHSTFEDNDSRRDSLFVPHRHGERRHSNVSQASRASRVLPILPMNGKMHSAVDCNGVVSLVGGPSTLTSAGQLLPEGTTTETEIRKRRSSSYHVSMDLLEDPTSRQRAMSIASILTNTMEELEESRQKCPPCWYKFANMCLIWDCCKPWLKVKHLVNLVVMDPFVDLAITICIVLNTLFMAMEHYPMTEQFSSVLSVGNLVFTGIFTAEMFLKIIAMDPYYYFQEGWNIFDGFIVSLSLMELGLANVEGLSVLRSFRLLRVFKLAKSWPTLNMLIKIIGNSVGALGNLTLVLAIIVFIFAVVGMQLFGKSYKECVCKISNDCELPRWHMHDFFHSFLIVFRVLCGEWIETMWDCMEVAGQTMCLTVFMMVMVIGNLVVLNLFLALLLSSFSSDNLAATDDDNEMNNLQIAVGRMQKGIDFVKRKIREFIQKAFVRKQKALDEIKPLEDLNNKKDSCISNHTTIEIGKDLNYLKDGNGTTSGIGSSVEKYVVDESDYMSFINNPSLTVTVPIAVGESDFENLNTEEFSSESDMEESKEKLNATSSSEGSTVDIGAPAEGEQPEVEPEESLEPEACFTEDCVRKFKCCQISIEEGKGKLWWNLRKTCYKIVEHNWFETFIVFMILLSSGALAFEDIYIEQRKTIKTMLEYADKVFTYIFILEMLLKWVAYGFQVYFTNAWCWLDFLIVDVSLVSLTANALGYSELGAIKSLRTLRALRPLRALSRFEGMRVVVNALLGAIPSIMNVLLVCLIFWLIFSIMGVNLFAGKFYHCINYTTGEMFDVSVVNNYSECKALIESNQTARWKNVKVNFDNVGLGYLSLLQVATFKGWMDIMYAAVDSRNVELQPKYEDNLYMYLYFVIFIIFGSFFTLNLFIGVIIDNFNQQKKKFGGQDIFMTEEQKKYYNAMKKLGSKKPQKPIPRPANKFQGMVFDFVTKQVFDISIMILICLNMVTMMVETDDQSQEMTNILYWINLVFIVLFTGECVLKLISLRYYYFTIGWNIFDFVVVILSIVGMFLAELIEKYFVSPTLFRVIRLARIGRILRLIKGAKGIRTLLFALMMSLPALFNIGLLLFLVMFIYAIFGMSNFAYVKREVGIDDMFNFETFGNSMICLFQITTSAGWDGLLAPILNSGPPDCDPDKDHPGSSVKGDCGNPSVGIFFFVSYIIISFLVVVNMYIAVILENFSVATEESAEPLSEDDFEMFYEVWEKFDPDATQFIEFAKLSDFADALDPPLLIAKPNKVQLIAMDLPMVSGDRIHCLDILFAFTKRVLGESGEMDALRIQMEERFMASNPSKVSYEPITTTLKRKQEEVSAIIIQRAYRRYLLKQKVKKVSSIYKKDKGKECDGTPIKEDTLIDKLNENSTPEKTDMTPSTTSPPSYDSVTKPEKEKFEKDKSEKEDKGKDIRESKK
Sequence of wild-type human cardiac sodium channel, hNav1.5 (Q14524 whole entry): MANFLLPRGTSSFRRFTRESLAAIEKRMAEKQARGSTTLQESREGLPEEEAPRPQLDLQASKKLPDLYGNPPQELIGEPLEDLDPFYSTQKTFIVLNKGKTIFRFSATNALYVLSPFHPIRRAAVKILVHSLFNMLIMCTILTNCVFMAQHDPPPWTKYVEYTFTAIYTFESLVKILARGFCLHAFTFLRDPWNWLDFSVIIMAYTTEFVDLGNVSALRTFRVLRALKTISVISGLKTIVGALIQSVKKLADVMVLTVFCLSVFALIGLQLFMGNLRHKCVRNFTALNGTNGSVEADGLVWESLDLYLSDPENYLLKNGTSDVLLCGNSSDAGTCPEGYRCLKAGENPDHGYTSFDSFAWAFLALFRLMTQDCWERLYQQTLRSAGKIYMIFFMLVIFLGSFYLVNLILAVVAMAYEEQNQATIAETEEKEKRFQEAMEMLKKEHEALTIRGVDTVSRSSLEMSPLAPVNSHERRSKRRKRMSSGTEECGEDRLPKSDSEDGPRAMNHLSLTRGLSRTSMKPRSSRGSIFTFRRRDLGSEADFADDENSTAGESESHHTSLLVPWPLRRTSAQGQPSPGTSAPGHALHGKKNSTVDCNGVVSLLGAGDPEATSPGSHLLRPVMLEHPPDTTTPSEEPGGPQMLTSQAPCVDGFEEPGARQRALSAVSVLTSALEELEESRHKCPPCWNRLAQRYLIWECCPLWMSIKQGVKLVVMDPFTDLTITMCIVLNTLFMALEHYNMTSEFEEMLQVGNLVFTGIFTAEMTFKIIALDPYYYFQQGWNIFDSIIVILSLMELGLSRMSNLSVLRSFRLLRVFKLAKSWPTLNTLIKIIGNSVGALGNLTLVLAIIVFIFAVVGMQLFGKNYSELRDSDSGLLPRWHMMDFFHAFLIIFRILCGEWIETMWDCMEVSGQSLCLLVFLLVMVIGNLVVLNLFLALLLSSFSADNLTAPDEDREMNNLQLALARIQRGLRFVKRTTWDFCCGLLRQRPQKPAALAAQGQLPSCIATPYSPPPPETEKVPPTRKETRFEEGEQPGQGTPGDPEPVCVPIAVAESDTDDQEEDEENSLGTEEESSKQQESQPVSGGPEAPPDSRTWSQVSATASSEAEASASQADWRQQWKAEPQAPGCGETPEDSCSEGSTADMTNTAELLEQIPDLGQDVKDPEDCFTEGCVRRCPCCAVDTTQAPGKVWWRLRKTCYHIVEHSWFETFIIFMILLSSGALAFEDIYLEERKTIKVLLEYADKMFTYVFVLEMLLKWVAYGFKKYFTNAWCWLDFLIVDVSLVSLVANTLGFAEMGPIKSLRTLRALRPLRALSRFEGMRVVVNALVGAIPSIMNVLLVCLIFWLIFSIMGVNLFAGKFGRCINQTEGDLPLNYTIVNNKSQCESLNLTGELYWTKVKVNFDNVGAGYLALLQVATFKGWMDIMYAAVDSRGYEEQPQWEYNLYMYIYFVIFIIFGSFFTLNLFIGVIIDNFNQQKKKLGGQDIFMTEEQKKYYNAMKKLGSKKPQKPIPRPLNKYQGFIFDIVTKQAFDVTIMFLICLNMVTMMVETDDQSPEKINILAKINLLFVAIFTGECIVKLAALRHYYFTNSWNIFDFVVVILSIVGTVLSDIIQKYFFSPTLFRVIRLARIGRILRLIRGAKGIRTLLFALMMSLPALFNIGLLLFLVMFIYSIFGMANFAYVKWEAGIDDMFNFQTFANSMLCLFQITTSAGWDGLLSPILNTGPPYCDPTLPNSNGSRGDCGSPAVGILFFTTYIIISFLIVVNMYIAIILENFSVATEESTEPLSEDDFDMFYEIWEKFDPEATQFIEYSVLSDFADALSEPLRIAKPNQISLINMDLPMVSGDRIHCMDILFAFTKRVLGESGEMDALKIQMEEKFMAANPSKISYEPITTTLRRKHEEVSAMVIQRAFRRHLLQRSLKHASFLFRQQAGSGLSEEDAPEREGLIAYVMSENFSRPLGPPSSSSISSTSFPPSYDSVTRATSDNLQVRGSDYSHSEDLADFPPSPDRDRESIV

Structure (SMILES) | inhibition at 1 µM (human Nav1.1) [%] | inhibition at 1 µM (hNav1.2 sodium channel) [%] | inhibition at 1 µM [1] [%]
FC(F)(F)Oc1ccc(-c2ccc3c(c2)-c2nccn2CCO3)cc1 [Compound I-2, 10-(4-(trifluoromethoxy)phenyl)-5,6-dihydrobenzo[f]imidazo[1,2-d][1,4]oxazepine] | 1 | 18 | 31
FC(F)(F)c1ccc(-c2ccc3c(c2)-c2ncc(C4CC4)n2CCO3)cc1 [Compound I-9, 3-cyclopropyl-10-(4-(trifluoromethyl)phenyl)-5,6-dihydrobenzo[f]imidazo[1,2-d][1,4]oxazepine] | 4 | 0 | 4
FC(F)(F)c1ccc(-c2ccc3c(c2)-c2nccn2CCO3)cc1 [Compound I-1, 10-(4-(trifluoromethyl)phenyl)-5,6-dihydrobenzo[f]imidazo[1,2-d][1,4]oxazepine] | -12 | 2 | 32
Cc1cnc2n1CCOc1ccc(-c3ccc(C(F)(F)F)cc3)cc1-2 [Compound I-6, 3-methyl-10-(4-(trifluoromethyl)phenyl)-5,6-dihydrobenzo[f]imidazo[1,2-d][1,4]oxazepine] | -10 | -3 | 28

Continued, in another order:

inhibition at 1 µM (human Nav1.1) [%] | inhibition at 1 µM (hNav1.2 sodium channel) [%] | Structure (SMILES) | inhibition at 1 µM [1] [%]
-3 | 8 | FC(F)(F)c1ccc(-c2ccc3c(c2)-c2ncc(Cl)n2CCO3)cc1 [Compound I-13, 3-chloro-10-(4-(trifluoromethyl)phenyl)-5,6-dihydrobenzo[f]imidazo[1,2-d][1,4]oxazepine] | 6
-5 | 0 | CC(C)(O)c1cnc2n1CCOc1ccc(-c3ccc(C(F)(F)F)cc3)cc1-2 [Compound I-10, 2-(10-(4-(trifluoromethyl)phenyl)-5,6-dihydrobenzo[f]imidazo[1,2-d][1,4]oxazepin-3-yl)propan-2-ol] | 10
-7 | 6 | FC(F)(F)c1ccc(-c2ccc3c(c2)-c2ncc(Br)n2CCO3)cc1 [Compound I-12, 3-bromo-10-(4-(trifluoromethyl)phenyl)-5,6-dihydrobenzo[f]imidazo[1,2-d][1,4]oxazepine] | 4
0 | 4 | Cc1c(Cl)nc2n1CCOc1ccc(-c3ccc(C(F)(F)F)cc3)cc1-2 [Compound I-14, 2-chloro-3-methyl-10-(4-(trifluoromethyl)phenyl)-5,6-dihydrobenzo[f]imidazo[1,2-d][1,4]oxazepine] | 11
-5 | -5 | FC(F)(F)c1ccc(-c2ccc3c(c2)-c2ncc(Cc4ccccc4)n2CCO3)cc1 [Compound I-11, 3-benzyl-10-(4-(trifluoromethyl)phenyl)-5,6-dihydrobenzo[f]imidazo[1,2-d][1,4]oxazepine] | 13

Reference: patent US9695192B2, “Fused heterocyclic compounds as ion channel modulators” (GILEAD SCIENCES, INC., priority 2011, dated 2017)
